≈ marks a conversion by molar mass, not a printed value.
Key:
[1] = test system: Fusarium graminearum B4-5A; test: microbe, parasite or virus in culture; assay type: cell-based; settings: Fusarium graminearum B4-5A
Candida glabrata = test: MIC against yeast, CLSI M27 & M38 (Table 2); settings: 24-72 hours
E. coli (25922) = test: MIC against bacterial strains; assay type: cell-based
Rhizopus arrhizus = test: MIC against filamentous and dimorphic fungi, CLSI M27 & M38 (Table 3); assay type: cell-based; settings: 24-72 hours
Candida albicans 64124 = test: MIC against fungal strains (Table 1); assay type: cell-based
[2] = test system: Cryptococcus neoformans H99; test: MIC against fungal strains (Table 1); assay type: cell-based; settings: Cryptococcus neoformans H99
Candida guillermondii = test: MIC against yeast, CLSI M27 & M38 (Table 2); settings: 24-72 hours
C. krusei = test: MIC against various species, CLSI M27 & M38 (Table 4); settings: C. krusei AC ATCC 6258; Table 4; RPMI 0.165M MOPS; 24-72 hours
Histoplasma capsulatum = test: microbe, parasite or virus in culture; assay type: cell-based; settings: Table 3, RPMI 0.165M MOPS, 24-72 hours
C. albicans = test: MIC against various species, CLSI M27 & M38 (Table 4); settings: 24-72 hours
Rhodotorula pilimanae = test: MIC against fungal strains (Table 1); assay type: cell-based
S. aureus (ATCC 25923) = test: MIC against bacterial strains; assay type: cell-based
Candida auris = test: MIC against yeast, CLSI M27 & M38 (Table 2); settings: 24-72 hours
[3] = Candida glabrata CG1, RPMI 0.165M MOPS
[4] = Candida glabrata CG2, RPMI 0.165M MOPS
[5] = Candida glabrata CG3, RPMI 0.165M MOPS
[6] = Rhizopus arrhizus 99-880, RPMI 0.165M MOPS
[7] = Rhizopus arrhizus 99-892, RPMI 0.165M MOPS
[8] = Rhizopus arrhizus RA1, RPMI 0.165M MOPS
[9] = Candida guillermondii CGUI1, RPMI 0.165M MOPS
[10] = Candida guillermondii CGUI2, RPMI 0.165M MOPS
[11] = Candida guillermondii CGUI3, RPMI 0.165M MOPS
[12] = C. albicans CA1, RPMI 0.165M MOPS
[13] = C. albicans CA2, RPMI 0.165M MOPS
[14] = C. albicans CA3, RPMI 0.165M MOPS
[15] = Candida auris CAU1, RPMI 0.165M MOPS
[16] = Candida auris CAU2, RPMI 0.165M MOPS

CCCCCCCCCCCCCCCC(=O)NC[C@H]1O[C@H](O[C@H]2[C@H](O)[C@@H](O[C@H]3O[C@H](CO)[C@@H](O)[C@H](N)[C@H]3O)[C@H](N)C[C@@H]2N)[C@H](O)[C@@H](O)[C@@H]1O [KI06]
Minimum inhibitory concentration [1]: 4 µg/mL (≈ 5.53 µM) | Minimum inhibitory concentration 50% (Candida glabrata; [3]): 4 µg/mL (≈ 5.53 µM) | Minimum inhibitory concentration 100% (Candida glabrata; [3]): 8 µg/mL (≈ 11.1 µM) | Minimum inhibitory concentration 50% (Candida glabrata; [4]): 4 µg/mL (≈ 5.53 µM) | Minimum inhibitory concentration 100% (Candida glabrata; [4]): 4 µg/mL (≈ 5.53 µM) | Minimum inhibitory concentration 50% (Candida glabrata; [5]): 4 µg/mL (≈ 5.53 µM) | Minimum inhibitory concentration 100% (Candida glabrata; [5]): 4 µg/mL (≈ 5.53 µM) | Minimum inhibitory concentration (E. coli (25922)): 32 µg/mL (≈ 44.3 µM) | Minimum inhibitory concentration 50% (Rhizopus arrhizus; [6]): 2 µg/mL (≈ 2.77 µM) | Minimum inhibitory concentration 100% (Rhizopus arrhizus; [6]): 4 µg/mL (≈ 5.53 µM) | Minimum inhibitory concentration 50% (Rhizopus arrhizus; [7]): 2 µg/mL (≈ 2.77 µM) | Minimum inhibitory concentration 100% (Rhizopus arrhizus; [7]): 4 µg/mL (≈ 5.53 µM) | Minimum inhibitory concentration 50% (Rhizopus arrhizus; [8]): 2 µg/mL (≈ 2.77 µM) | Minimum inhibitory concentration 100% (Rhizopus arrhizus; [8]): 4 µg/mL (≈ 5.53 µM) | Minimum inhibitory concentration (Candida albicans 64124): 8 µg/mL (≈ 11.1 µM) | Minimum inhibitory concentration [2]: 4 µg/mL (≈ 5.53 µM) | Minimum inhibitory concentration 50% (Candida guillermondii; [9]): 4 µg/mL (≈ 5.53 µM) | Minimum inhibitory concentration 100% (Candida guillermondii; [9]): 8 µg/mL (≈ 11.1 µM) | Minimum inhibitory concentration 50% (Candida guillermondii; [10]): 4 µg/mL (≈ 5.53 µM) | Minimum inhibitory concentration 100% (Candida guillermondii; [10]): 8 µg/mL (≈ 11.1 µM) | Minimum inhibitory concentration 50% (Candida guillermondii; [11]): 4 µg/mL (≈ 5.53 µM) | Minimum inhibitory concentration 100% (Candida guillermondii; [11]): 8 µg/mL (≈ 11.1 µM) | Minimum inhibitory concentration 50% (C. krusei): 4 µg/mL (≈ 5.53 µM) | Minimum inhibitory concentration 100% (C. krusei): 8 µg/mL (≈ 11.1 µM) | Minimum inhibitory concentration 50% (Histoplasma capsulatum; Histoplasma capsulatum HC1): 2 µg/mL (≈ 2.77 µM) | Minimum inhibitory concentration 100% (Histoplasma capsulatum; Histoplasma capsulatum HC1): 4 µg/mL (≈ 5.53 µM) | Minimum inhibitory concentration 50% (Histoplasma capsulatum; Histoplasma capsulatum HC2): 4 µg/mL (≈ 5.53 µM) | Minimum inhibitory concentration 100% (Histoplasma capsulatum; Histoplasma capsulatum HC2): 8 µg/mL (≈ 11.1 µM) | Minimum inhibitory concentration 50% (Histoplasma capsulatum; Histoplasma capsulatum HC3): 2 µg/mL (≈ 2.77 µM) | Minimum inhibitory concentration 100% (Histoplasma capsulatum; Histoplasma capsulatum HC3): 4 µg/mL (≈ 5.53 µM) | Minimum inhibitory concentration 50% (C. albicans; [12]): 4 µg/mL (≈ 5.53 µM) | Minimum inhibitory concentration 100% (C. albicans; [12]): 4 µg/mL (≈ 5.53 µM) | Minimum inhibitory concentration 50% (C. albicans; [13]): 4 µg/mL (≈ 5.53 µM) | Minimum inhibitory concentration 100% (C. albicans; [13]): 8 µg/mL (≈ 11.1 µM) | Minimum inhibitory concentration 50% (C. albicans; [14]): 2 µg/mL (≈ 2.77 µM) | Minimum inhibitory concentration 100% (C. albicans; [14]): 4 µg/mL (≈ 5.53 µM) | Minimum inhibitory concentration (Rhodotorula pilimanae): 4 µg/mL (≈ 5.53 µM) | Minimum inhibitory concentration (S. aureus (ATCC 25923)): 16 µg/mL (≈ 22.1 µM) | Minimum inhibitory concentration 50% (Candida auris; [15]): 4 µg/mL (≈ 5.53 µM) | Minimum inhibitory concentration 100% (Candida auris; [15]): 8 µg/mL (≈ 11.1 µM) | Minimum inhibitory concentration 50% (Candida auris; [16]): 4 µg/mL (≈ 5.53 µM) | Minimum inhibitory concentration 100% (Candida auris; [16]): 8 µg/mL (≈ 11.1 µM) | Minimum inhibitory concentration 50% (Candida auris; Candida auris CAU3, RPMI 0.165M MOPS): 4 µg/mL (≈ 5.53 µM)
